{"source": "patent US20050004007A1", "about": "“Promotion of adoptosis in cancer cells by co-administration of cyclin dependent kinase inhibitiors and cellular differentiation agents” (priority 2000, published 2005)", "key": {"[1]": {"tested_on": "U937 myelomonocytic human leukemia cells", "experiment": "percent cell death", "type": "cell-based", "settings": "1 μM SAHA, 100 nM FP, 24 hours after administration"}, "[2]": {"tested_on": "HL-60 promyelocytic leukemia cells", "experiment": "percent cell death", "type": "cell-based, human", "settings": "SAHA 1 and 1.5 μM alone or with 100 or 150 nM FP"}, "U937 cells [3]": {"tested_on": "U937 cells", "experiment": "cell cycle analysis (propidium iodide, flow cytometry)", "type": "cell-based, human", "settings": "24 h after administration of SAHA, FP or both", "protocol": "Cell Cycle Analysis. Following drug treatment, cells were pelleted by centrifugation at 500 g×6 min, and resuspended in 70% ethanol. The cells were incubated on ice for at least 1 h and resuspended in 1 ml cell cycle buffer (0.38 mM Na-Citrate, 0.5 mg/ml RNase A, and 0.01 mg/ml propidium iodide) at a concentration of 10×10^5 cells/ml, stored in the dark at 4 C until analysis (24 h), using a Becton-Dickinson FACScan flow cytometer and Verity Winlist software (Verity Software, Topsham, Me.)."}, "[4]": {"tested_on": "HL-60 human promyelocytic leukemia cells", "experiment": "morphological assessment of apoptosis", "type": "cell-based", "settings": "3, 5, or 10 μM ATRA, 80 nM FP", "description": "(§1) Cell culture. The myelomonocytic leukemia cell line U937 was derived from a patient with histiocytic lymphoma and was obtained from American Type Culture Collection. The HL-60 cell line was derived from a patient with acute promyelocytic leukemia as previously described [Grant et al. 1992]. U937 and HL-60 cells were maintained in logarithmic growth phase by culturing in suspension in phenol red-free RPMI-1640 (Life Technologies, Inc., Grand Island, N.Y.) and 10% (v/v) fetal calf serum (Hyclone, Logan, Utah), in a humidified atmosphere (95% air/5% CO2) at 37° C. To obtain antisense-expressing cell lines, U937 cells were transfected by electroporation with a pREP4 vector (Invitrogen; Carlsbad, Calif.) or the pREP4 vector containing the p21^WAF1/CIP1 coding region in an antisense orientation as previously described [Wang et al. 1999]. […]\n(§2) Morphological assessment of apoptosis. U937 cells were evaluated for apoptosis by morphological assessment of Wright and Giemsa-stained cytospin preparations. At designated times, cells were transferred to slides by cytocentrifugation, fixed, stained, and evaluated under light microscopy for treatment-induced apoptosis. […] Five or more randomly selected fields, encompassing a total≧500 cells/slide, were evaluated to determine the percentage of apoptotic cells for each treatment condition."}, "U937/Bcl-2 cells": {"tested_on": "U937/Bcl-2 cells", "experiment": "morphological assessment of apoptosis in Bcl-2 overexpressing cells", "type": "cell-based, human", "settings": "ara-C 1.0 μM x 6 h", "description": "as §1, §2"}, "pRb": {"tested_on": "pRb", "experiment": "Western analysis of underphosphorylated pRb in U937 cells", "type": "cell-based, human", "protocol": "(§3) Western analysis. Equal quantities of protein (15 μg/condition for MAPK, 40 μg/condition for cytochrome c, or 25 μg/condition) were separated by SDS-PAGE [underphosporylated pRB (7.5%), poly(ADP-ribose)polymerase or PARP (8.0%), p44/p42 MAPK (10%), p21, p27, procaspase 3 (12%), and cytochrome c (15%)] and electroblotted onto nitrocellulose. Western analysis of p44/p42 MAPK protein was performed according to the manufacturer's instructions (New England Biolabs); otherwise, studies were performed as previously described [Wang et al, 1998]. Briefly, U937 cells (5×10^6) were pelleted by centrifugation, resuspended in 50 μl PBS, lysed by the addition of 2× Laemmli buffer and boiled for 5 min. Proteins were quantified with Coomassie protein assay reagent. Blots were blocked in PBS-T/5% milk, washed twice with PBS-T, and incubated overnight at 4° C. with the appropriate primary antibody. The blots were washed with PBS-T and incubated with a horseradish-peroxidase conjugated secondary antibody diluted appropriately in PBS-T/5% mill. Following incubation, blots were developed by enhanced chemiluminescence exposure to Kodak X-OMAT film (Eastman Kodak Co., Rochester, N.Y.) and reprobed with antibodies directed against actin to control for equal loading of protein.\n(§4) Alternatively, whole cell-pellets were washed twice in PBS, resuspended in PBS, and lysed by the addition of I volume of loading buffer. Lysates were boiled for 10 min, centrifuged at 12,800 g for 5 min and quantified using Coomassie protein assay reagent (Pierce, Rockfold, Ill.). 25 μg of total proteins per point were separated by SDS-PAGE and electro-blotted to nitrocellulose. The blots were blocked in 5% non-fat milk in PBS-T and probed for 1 h with the appropriate dilution of primary antibody. Blots were washed 3×10 min in PBS-T and then incubated with a 1:2000 dilution of peroxidase-conjugated secondary antibody for 1 h at room temperature. Blots were again washed 3×10 min in PBS-T and then developed by enhanced chemiluminesence. Where indicated, blots were stripped and re-probed with antibodies directed against actin.\n(§5) Primary antibodies for both p21^WAF1/CIP1 and p27^KIP1 (Transduction Laboratories, Lexington, Ky.) were used in a 1:1000 dilution; PARP (1:1000; Oncogene Research Products, Cambridge, Mass.); pro-caspase 3 (1:1000; Transduction Laboratories); cytochrome c (1:2000; Pharmingen); bcl-2 (1:2000; DAKO, Denmark); bax (1:1000; Santa Cruz Biotechnology, Inc., Santa Cruz, Calif.); bid (1:1000; Cell Signaling, Beverly, Mass.); XIAP (1:1000; Cell Signaling); Mcl-1 (1:1000; Pharmingen); bak (1:1000; Calbiochem); c-Myc (1:1000; Pharmingen, San Diego, Calif.); actin (1:2000; Sigma Chemicals, St. Louis, Mo.); cyclins-D1, -A and -E (1:1000; Pharmingen); pRb, underP-pRb, pRb-CDK2 and pRb-CDK4 (all 1:1000; Pharmingen); Ac-H3 and Ac-H4 (both 1:1000; Upstate Biotechnology, Lake Placid, N.Y.); E2F-1 (Upstate Biotechnology). Secondary antibodies conjugated to horseradish peroxidase were obtained from Kirkegaard and Perry Laboratories, Inc. (Gaithersburg, Md.). Coomassie protein assay reagent was purchased from Pierce (Rockford, Ill.), and an enhanced chemiluminescence kit was obtained from New England Nuclear (Boston, Mass.). The pan-caspase inhibitor BOC-D-fmk and the caspase 8 inhibitor Z-IETD-fmk were purchased from Enzyme System Products (Livermore, Calif.) All other chemicals or reagents were purchased from Sigma."}, "p27KIP1": {"tested_on": "p27KIP1", "experiment": "Western analysis of p27KIP1 expression in U937 cells", "type": "cell-based, human", "settings": "10 nM PMA, FP 50-100 nM, 24 h", "protocol": "as §3, with “Following incubation, blots were developed by enhanced chemiluminescence exposure to Kodak X-OMAT film (Eastman Kodak Co., Rochester, N.Y.) and reprobed with antibodies directed against actin to control for equal loading of protein.” left out\nAlternatively, whole cell-pellets were washed twice in PBS, resuspended in PBS, and lysed by the addition of I volume of loading buffer. Lysates were boiled for 10 min, centrifuged at 12,800 g for 5 min and quantified using Coomassie protein assay reagent (Pierce, Rockfold, Ill.). […]"}, "[5]": {"tested_on": "p21WAF1/CIP1 full-length promoter", "experiment": "p21WAF1/CIP1 luciferase reporter assay", "type": "cell-based, human", "settings": "10 nM PMA, 100 nM FP, 3 and 6 h", "protocol": "(§6) Differentiation studies. Expression of the monocytic differentiation marker, CD11b, was monitored by direct immunofluorescence staining and flow cytometric analysis as previously described [Freemerman et al. 1997]. Following drug treatment, suspension and adherent cells were enumerated by a Coulter Counter and 2×10^6 cells were pelleted by centrifugation. The supernatant was aspirated and the cells were resuspended in 300 μl of ice-cold PBS. Two 100 μl aliquots from each sample were then combined with either phycoerythrin-1 (10 μl) or the IgG control. Samples were incubated for 20 min at 4° C. and diluted in PBS (1 ml). Sample data were collected using a Becton Dickinson FACScan flow cytometer and analyzed with Verity Winlist Software (Verity; Topsham, Me.). […] U937 cells were transfected with a full-length p21^WAF1/CIP1 promoter (base pairs 1-2326) as described by Chinery et al. [Chinery et al. 1997] utilizing electroporation (Eppendorf Multiporator, 620V, 60 μs) in hypoosmolar buffer. […] Lysates (20 μL) were mixed with luciferase assay reagent (100 μL) and monitored for 20 seconds in a luminometer (Monolight 2010). […] The reaction was terminated by addition of NaCO3 and absorbance was measured at 405 nm in a Vmax plate reader (Molecular Devices). Activity was determined by comparison to a standard curve. […]"}, "U937 cells [6]": {"tested_on": "U937 cells", "experiment": "clonogenic survival assay", "type": "cell-based, human", "settings": "24-h exposure; 10 nM PMA alone or 10 nM PMA/100 nM FP", "protocol": "Clonogenic survival assays. Clonogenic survival assays assessed the effects of 10 nM PMA, FP (50 or 100 nM) or PMA/FP co-treatments on leukemic cell self-renewal capacity. Cell densities were determined after 24-h drug treatment using a Coulter Counter (Coulter Electronics, Hialeah, Fla.). Cells were pelleted by centrifugation and resuspended in fresh media to achieve a final cell density of 3×10^5/ml. A total of 4500 cells were plated in soft agar cloning medium for each condition as previously described [Powell et al. 1995]. Colonies, defined as groups of≧50 cells, were scored after 12 days of incubation. Clonogenic survival in drug-treated samples was expressed as a percentage relative to untreated controls."}, "U937 cells [7]": {"tested_on": "U937 cells", "experiment": "plastic adherence (differentiation)", "type": "cell-based, human", "settings": "10 nM PMA alone or with FP 100 nM", "protocol": "as §6"}, "p21WAF1/CIP1": {"tested_on": "p21WAF1/CIP1", "experiment": "Western analysis of p21WAF1/CIP1 expression in U937 cells", "type": "cell-based, human", "protocol": "as §3, §4, §5"}, "ERK1/2": {"tested_on": "ERK1/2", "experiment": "Western analysis of phosphorylated p44/p42 MAPK in U937 cells", "type": "cell-based, human", "settings": "10 nM PMA, 100 nM FP, 30 min-6 h", "protocol": "as §3"}, "U937 cells [8]": {"tested_on": "U937 cells", "experiment": "CD11b surface differentiation marker expression (flow cytometry)", "type": "cell-based, human", "settings": "24 h; 10 nM PMA alone or with 50 nM FP", "protocol": "Differentiation studies. Expression of the monocytic differentiation marker, CD11b, was monitored by direct immunofluorescence staining and flow cytometric analysis as previously described [Freemerman et al. 1997]. Following drug treatment, suspension and adherent cells were enumerated by a Coulter Counter and 2×10^6 cells were pelleted by centrifugation. The supernatant was aspirated and the cells were resuspended in 300 μl of ice-cold PBS. Two 100 μl aliquots from each sample were then combined with either phycoerythrin-1 (10 μl) or the IgG control. Samples were incubated for 20 min at 4° C. and diluted in PBS (1 ml). Sample data were collected using a Becton Dickinson FACScan flow cytometer and analyzed with Verity Winlist Software (Verity; Topsham, Me.). […] U937 cells were transfected with a full-length p21^WAF1/CIP1 promoter (base pairs 1-2326) as described by Chinery et al. [Chinery et al. 1997] utilizing electroporation (Eppendorf Multiporator, 620V, 60 μs) in hypoosmolar buffer. In each experiment, pSV-βgal (Promega), containing the β-galactosidase gene under the control of the constitutively active SV40 promoter and enhancer, was co-transfected with the luciferase reporter at a ratio of 1:5 (w/w) to normalize for transfection efficiency. The cells were incubated overnight in complete media and treated with 10 nM PMA, 100 nM FP, or 10 nM PMA/100 nM FP for 3 or 6 h. At indicated times, cells were washed in serum-free media, resuspended in 0.25M Tris-HCl pH 7.8, lysed by rapid freeze-thaw, centrifuged and the supernatant frozen at −70° C. Lysates (20 μL) were mixed with luciferase assay reagent (100 μL) and monitored for 20 seconds in a luminometer (Monolight 2010). For β-galactosidase activity, lysates (50 μL) were mixed in triplicate with an equal volume of […] assay buffer (2×) in a 96-well plate and incubated overnight. The reaction was terminated by addition of NaCO3 and absorbance was measured at 405 nm in a Vmax plate reader (Molecular Devices). Activity was determined by comparison to a standard curve. […]"}}}
{"compound": "O=C(CCCCCCC(=O)Nc1ccccc1)NO", "note": "[SAHA, suberoylanilide hydroxamic acid]", "values": [{"measurement": "cell death", "setting": "[1]", "value": "ineffective"}, {"measurement": "cell death", "setting": "[2]", "value": "modest levels of cell death"}, {"measurement": "cell cycle distribution", "setting": "U937 cells [3]", "value": "prominent increase in the percentage of cells arresting in G0/G1"}]}
{"compound": "CC1=C(/C=C/C(C)=C/C=C/C(C)=C/C(=O)O)C(C)(C)CCC1", "note": "[ATRA, all trans retinoic acid]", "values": [{"measurement": "% apoptosis", "setting": "[4]", "value": "minimal effect"}]}
{"compound": "Nc1ccn([C@@H]2O[C@H](CO)[C@@H](O)[C@@H]2O)c(=O)n1", "note": "[ara-C, 1-β-D-arabinofuranosylcytosine]", "values": [{"measurement": "lethal effects in Bcl-2 overexpressing cells", "setting": "U937/Bcl-2 cells", "value": "significantly protected"}]}
{"compound": "CCCCCCCCCCCCCC(=O)O[C@@H]1[C@@H](C)[C@@]2(O)[C@@H](C=C(CO)C[C@]3(O)C(=O)C(C)=C[C@@H]23)[C@@H]2C(C)(C)[C@]12OC(C)=O", "note": "[PMA, phorbol 12-myristate 13-acetate]", "values": [{"measurement": "time of pRb dephosphorylation", "setting": "pRb; 10 nM PMA alone", "value": 3, "unit": "h"}, {"measurement": "full-length underphosphorylated pRb", "setting": "pRb; 10 nM PMA, FP 50, 80 or 100 nM, 24 h", "value": "significant increase"}, {"measurement": "p27KIP1 expression", "setting": "p27KIP1", "value": "slight increase"}, {"measurement": "p21WAF1/CIP1 reporter activity", "setting": "[5]", "value": "markedly increased"}, {"measurement": "clonogenic survival, percentage relative to untreated controls", "setting": "U937 cells [6]", "value": 15, "unit": "%"}, {"measurement": "percentage of cells with plastic adherence", "setting": "U937 cells [7]", "value": 80, "unit": "%"}, {"measurement": "p21WAF1/CIP1 expression", "setting": "p21WAF1/CIP1; 10 nM PMA, FP 50-100 nM, 24 h", "value": "significant increase"}, {"measurement": "time to induction of p21WAF1/CIP1 after drug addition", "setting": "p21WAF1/CIP1; PMA 10 nM", "value": "≤ 1", "unit": "h"}, {"measurement": "phosphorylation (activation) of ERK1/2", "setting": "ERK1/2", "value": "increase in phosphorylated ERK1/2"}, {"measurement": "percentage of cells displaying CD11b expression", "setting": "U937 cells [8]", "value": 26, "unit": "%"}]}
